Data reported in patent US12593846B2, “Combinations of triazolone herbicides with safeners” (priority 2020, dated 2026).

What was measured:
Type in all cases: in vivo
Brachiaria decumbens = experiment: % weed control in soybean crop, spray application to soil; parameters: concentration or dose not given beside the values; conditions: average of 4 replications; for % Weed Control 7 DAA: 7 days after administration; for % Weed Control 14 DAA: 14 days after administration; for % Weed Control 21 DAA: 21 days after administration; for % Weed Control 28 DAA: 28 days after administration; for % Weed Control 35 DAA: 35 days after administration
Text: (§1) Below table gives summary of the formulation details and application details of Sulfentrazone and Mefenpyr-diethyl, Isoxadifen-ethyl and Cloquintocet-mexyl that were used in combination with Sulfentrazone for treatments. Application method was spray and applications were made to soil.
(§2) Below table gives summary of the formulation details and application details of Sulfentrazone and Dichlormid, Fenclorim, Benoxacor, Flurazole and Fluxofenim that were used in combination with Sulfentrazone for treatments. Application method was spray and applications were made to soil.
Below table gives summary of % weed control shown in soybean crop by untreated check, Sulfentrazone alone and combination of Sulfentrazone with Mefenpyr-diethyl, Isoxadifen-ethyl and Cloquintocet-mexyl at different application rates. % weed control was checked for weed Brachiaria decumbens.
Below table gives summary of % weed control in soybean crop shown by untreated check, Sulfentrazone alone and combination of Sulfentrazone with Dichlormid, Fenclorim, Benoxacor, Flurazole and Fluxofenim at different application rates. % weed control was checked for weed Brachiaria decumbens.

soybean plant = experiment: Effect on plant height of soybean plant; conditions: average of 4 replications; for Plant height 14 DAA: 14 days after administration; for Plant height 28 DAA: 28 days after administration
Description: (§3) Experiments were carried out to evaluate the phytotoxicity, effect on plant height and effect on number of plants standing after treatments with combinations of one or more triazolone herbicides with one or more safeners.
as §1, §2
Below table gives summary of effect on plant height of soybean plant shown by untreated check, Sulfentrazone alone and combination of Sulfentrazone with Mefenpyr-diethyl, Isoxadifen-ethyl and Cloquintocet-mexyl at different application rates.
Below table gives summary of effect on plant height of soybean plant shown by untreated check, Sulfentrazone alone and combination of Sulfentrazone with Dichlormid, Fenclorim, Benoxacor, Flurazole and Fluxofenim at different application rates.

soybean plants = experiment: Number of soybean plants standing after herbicidal treatment; conditions: average of 4 replications; for Number of plants standing 14 DAA: 14 days after administration; for Number of plants standing 28 DAA: 28 days after administration
Description: as §3, §1, §2
Below table gives summary of effect on number of soybean plants standing after herbicidal treatment shown by untreated check, Sulfentrazone alone and combination of Sulfentrazone with Mefenpyr-diethyl, Isoxadifen-ethyl and Cloquintocet-mexyl at different application rates.
Below table gives summary of effect on number of soybean plants standing after herbicidal treatment shown by untreated check, Sulfentrazone alone and combination of Sulfentrazone with Dichlormid, Fenclorim, Benoxacor, Flurazole and Fluxofenim at different application rates.

[1] = treatments 9-20 (rates in Table 2)
[2] = treatments 1-8 (rates in Table 1)

Row | SMILES | % Weed Control 7 DAA (Brachiaria decumbens; [1]) | % Weed Control 14 DAA (Brachiaria decumbens; [1]) | % Weed Control 21 DAA (Brachiaria decumbens; [1]) | % Weed Control 28 DAA (Brachiaria decumbens; [1]) | % Weed Control 35 DAA (Brachiaria decumbens; [1]) | Plant height 14 DAA (soybean plant; [1]) | Plant height 28 DAA (soybean plant; [1]) | Number of plants standing 14 DAA (soybean plants; [1]) | Number of plants standing 28 DAA (soybean plants; [1]) | % Weed Control 7 DAA (Brachiaria decumbens; [2]) | % Weed Control 14 DAA (Brachiaria decumbens; [2]) | % Weed Control 21 DAA (Brachiaria decumbens; [2]) | % Weed Control 28 DAA (Brachiaria decumbens; [2]) | % Weed Control 35 DAA (Brachiaria decumbens; [2]) | Plant height 14 DAA (soybean plant; [2]) | Plant height 28 DAA (soybean plant; [2]) | Number of plants standing 14 DAA (soybean plants; [2]) | Number of plants standing 28 DAA (soybean plants; [2])
1 | Cc1nn(-c2cc(NS(C)(=O)=O)c(Cl)cc2Cl)c(=O)n1C(F)F [Treatment 10] | 100% | 100% | 100% | 100% | 100% | 6.65 | 10.90 | 5.3 | 5.3 | – | – | – | – | – | – | – | – | –
2 | Cc1nn(-c2cc(NS(C)(=O)=O)c(Cl)cc2Cl)c(=O)n1C(F)F [Treatment 2] | – | – | – | – | – | – | – | – | – | 100% | 100% | 100% | 100% | 100% | 2.90 | 5.15 | 5.3 | 4.5
